Each structure is given as a SMILES string.

In one assay the target is OXA-48 (Klebsiella pneumoniae, UniProt Q6XEC0). The assay can be described thus: biochemical. Also noted: Residual beta-lactamase activity; meropenem (NDM-1, 300 nm) or nitrocefin (others, 480 nm) hydrolysis, 1 uM Zn2+ (OXA-48: bicarbonate). As for the experimental part: (§1) IC50 determination with purified enzymes was performed as previously described ([40]). In brief, enzymes were diluted in 50 mM HEPES, pH 7.5, supplemented with 1 µM Zn^2+. For OXA-48, 50 mM HEPES, pH 7.5, was supplemented with 50 mM sodium bicarbonate buffer solution (Sigma Aldrich). Enzymes and inhibitors were mixed at various inhibitor concentrations, and absorbance was measured by spectrophotometry (Table S5). For NDM-1 and MBP-NDM-9, the hydrolysis of meropenem (24 µM) was monitored at 300 nm using UV- transparent 96-well plates (Corning, Kennebunk, ME). For all other enzymes, nitrocefin (24 µM, Millipore Sigma, USA) hydrolysis was monitored at 480 nm. The residual enzyme activity at various inhibitor concentrations was calculated in comparison to the initial reaction velocity of the inhibitor-free […] control. Dose-response curves were fitted using nonlinear regression in GraphPad Prism v. 10.5.0. All tests were performed at least in duplicates at 25°C.
Sequence of OXA-48 (Q6XEC0 23-265 limits assumed): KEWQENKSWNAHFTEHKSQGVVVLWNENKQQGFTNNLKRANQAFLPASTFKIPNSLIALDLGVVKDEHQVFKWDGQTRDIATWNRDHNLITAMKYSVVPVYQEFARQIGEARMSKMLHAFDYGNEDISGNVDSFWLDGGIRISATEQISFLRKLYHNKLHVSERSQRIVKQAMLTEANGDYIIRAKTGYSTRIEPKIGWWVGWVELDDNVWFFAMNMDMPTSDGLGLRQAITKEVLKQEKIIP

The target in another assay is VIM-7 (Pseudomonas aeruginosa, UniProt Q840P9). The experiment in a line: biochemical. The arrangement: Residual beta-lactamase activity; meropenem (NDM-1, 300 nm) or nitrocefin (others, 480 nm) hydrolysis, 1 uM Zn2+ (OXA-48: bicarbonate). As to the method:
as §1

The target of another assay is T1, NDM-1 (Klebsiella pneumoniae, UniProt C7C422).
T1 construct: gene blaNDM-1
T1 sequence (C7C422 29-270 limits assumed): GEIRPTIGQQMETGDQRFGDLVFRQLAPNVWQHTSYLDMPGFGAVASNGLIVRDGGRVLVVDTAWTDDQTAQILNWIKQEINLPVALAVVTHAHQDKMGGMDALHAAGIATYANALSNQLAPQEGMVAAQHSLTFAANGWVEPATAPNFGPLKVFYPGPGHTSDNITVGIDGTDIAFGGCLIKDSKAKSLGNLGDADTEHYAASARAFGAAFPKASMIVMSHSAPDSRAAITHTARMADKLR
The experiment in a line: biochemical. The arrangement: Residual beta-lactamase activity; meropenem (NDM-1, 300 nm) or nitrocefin (others, 480 nm) hydrolysis, 1 uM Zn2+ (OXA-48: bicarbonate). As for the experimental part: as §1

For the next assay, the target named is T2, VIM-2 (Pseudomonas aeruginosa, UniProt Q9K2N0).
T2 construct: gene blaVIM-2
Also noted: Residual beta-lactamase activity; meropenem (NDM-1, 300 nm) or nitrocefin (others, 480 nm) hydrolysis, 1 uM Zn2+ (OXA-48: bicarbonate). Particulars: inhibitor. As to the method: as §1

Assay [1] relates to T3, Klebsiella pneumoniae BAA1705™.
T3 construct: ATCC BAA-1705
The assay can be described thus: microbe, parasite or virus in culture. The arrangement: species or system clinical isolates of E. coli and K. pneumoniae. Particulars: Klebsiella pneumoniae, BAA1705; inhibitor alone; read-out: MIC APC24-7. As for the experimental part: (§2) MICs for clinical isolates were determined in a broth microdilution assay according to Clinical and Laboratory Standards Institute (CLSI) ([75]), using cation-adjusted Mueller-Hinton broth (Thermo Fisher Scientific, Lenexa, USA). The direct colony suspension method was utilized by preparing an inoculum of an OD600 0.17, except for E. coli #36 in which 0.10 was used, which equated to a concentration of 10^8 colony-forming units (CFU) per mL. Inoculum controls were included for all assays ([76]). […] Subsequently, we aimed to identify a potent β-lactam/APC24-7 combination capable of reversing β-lactamase-mediated BL resistance in our clinical isolates. All 16 isolates were exposed to increasing concentrations of meropenem (carbapenem), aztreonam (monobactam), ceftazidime and cefepime (cephalosporins), as well as amoxicillin (penicillin), both in the absence and presence of 57 µM (32 mg/L) of APC24-7. The effectiveness of these combinations was assessed based on their ability to resensitize the clinical isolates according to the clinical breakpoints (EUCAST clinical breakpoint table version 15.0, www.eucast.org).

Assay [2] deals with T4, Klebsiella pneumoniae K46-62.
T4 construct: K46-62
The assay can be described thus: microbe, parasite or virus in culture. Also noted: species or system clinical isolates of E. coli and K. pneumoniae. Particulars: Klebsiella pneumoniae, K4662; inhibitor alone; read-out: MIC APC24-7. As to the method: as §2

The subject of assay [3] is T5, Escherichia coli BAA-2469™.
T5 construct: ATCC BAA-2469
The experiment in a line: microbe, parasite or virus in culture. Also noted: species or system clinical isolates of E. coli and K. pneumoniae. To be noted: Escherichia coli, BAA2469; inhibitor alone; read-out: MIC APC24-7. As to the method: as §2

For assay [4], the system named is T6, Klebsiella pneumoniae BAA-2146™.
T6 construct: ATCC BAA-2146
The assay can be described thus: microbe, parasite or virus in culture. Also noted: species or system clinical isolates of E. coli and K. pneumoniae. To be noted: Klebsiella pneumoniae, BAA2146; inhibitor alone; read-out: MIC APC24-7. As to the method:
as §2

A further assay relates to T7, Escherichia coli MP32-64.
T7 construct: MP32-64
The assay can be described thus: microbe, parasite or virus in culture. Particulars: MP3264, inhibitor alone, read-out: MIC APC24-7. The arrangement: species or system E. coli E. cloni 10G; Microdilution MIC of inhibitor alone in LB, OD600 read-out, E. coli 10G without or with empty vector. As to the method:
(§3) Susceptibility testing of isogenic E. coli E. cloni 10G (Table 2) was determined by both the microdilution assay. […] Overnight cultures were prepared in LB supplemented with 25 mg/L chloramphenicol at 37°C under shaking at 700 rpm. The overnight cultures were diluted in PBS to 10^6 CFU/ mL, followed by inoculation in LB to ~10^5 CFU in 384-well plates (VWR, Radnor, PA, USA). Plates were prepared with twofold increasing concentrations of meropenem and cefepime ([…], respectively) to a total inoculated volume of 100 µL Plates were incubated at 37°C without shaking for 19–21 h. OD600 was determined in a SpectraMax Plus plate reader (Molecular Devices).

A further assay relates to T8, Escherichia coli MP21-05.
T8 construct: MP21-05
The assay can be described thus: microbe, parasite or virus in culture. Also noted: species or system E. coli E. cloni 10G; Microdilution MIC of inhibitor alone in LB, OD600 read-out, E. coli 10G without or with empty vector. Particulars: MP2105, inhibitor alone, read-out: MIC APC24-7. As for the experimental part: as §3

Sequence of VIM-7 (Q840P9 18-265): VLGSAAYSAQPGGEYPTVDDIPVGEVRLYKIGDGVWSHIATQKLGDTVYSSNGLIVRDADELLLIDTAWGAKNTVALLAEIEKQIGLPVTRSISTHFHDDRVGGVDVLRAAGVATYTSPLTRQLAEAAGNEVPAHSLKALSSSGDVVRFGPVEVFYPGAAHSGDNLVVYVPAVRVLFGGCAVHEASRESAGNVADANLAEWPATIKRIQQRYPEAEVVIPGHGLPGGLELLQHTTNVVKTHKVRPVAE

One may read the IC50 as the point on the concentration scale where inhibition reaches its midpoint. A high value points to weaker potency. With `O=C(N[C@H]1Cc2cccc(C(=O)O)c2OB1O)c1ccc(CNCCN(Cc2ccccn2)Cc2ccccn2)cc1` [APC24-7], the IC50 against OXA-48 came out at 420 nM; against VIM-7, 1080 nM; at NDM-1 it was 140 nM; against VIM-2 it was 110 nM. The MIC (in [1]; in assay [2]; in [3]; in [4]; in the assay on Escherichia coli MP32-64; with Escherichia coli MP21-05) was more than 906 µM each time.
